Results published in PMC12055641, “The Study of Antistaphylococcal Potential of Omiganan and Retro-Omiganan Under Flow Conditions” (Probiotics and Antimicrobial Proteins, 2024).
≈ marks a conversion by molar mass, not a printed value.

What was measured:
S. aureus ATCC 25923 = test: microbe, parasite or virus in culture
Source text: (§1) Clinical S. aureus strains were collected from patients with atopic dermatitis during their visits to the Outpatient Clinic and hospitalization in the Department of Dermatology, Venereology and Allergology at Medical University of Gdańsk (following the approval from the ethics committee, Approval Number NKBBN/242–477/2014). Reference strains of S. aureus ATCC 25923, S. aureus ATCC 33591, S. aureus ATCC 9144, and S. aureus ATCC 12598 were obtained from the American Type Culture Collection. All the strains were stored at − 80 °C in Roti®-Store cryo vials (Carl Roth GmbH, Karlsruhe, Germany) and before the tests were transferred into fresh Mueller–Hinton Medium (BioMaxima, Lublin, Poland) and incubated for 24 h at 37 °C. Subsequently, each bacterial inoculum was seeded on Mueller–Hinton agar plates (BioMaxima) and incubated again for 24 h. The cultures prepared in this way were used in further antimicrobial assays. Minimum inhibitory concentrations (MICs) were determined according to the Clinical and Laboratory Standards Institute recommendations. […] The experiments were conducted on 96-well microtiter plates, with a final volume of 100 μL. Additionally, in the case of daptomycin, the medium was supplemented with Ca^2+ (50 mg/L). Cell densities were adjusted spectrophotometrically (Multiskan™ GO Microplate Spectrophotometer, Thermo Scientific) at 600 nm. The MICs were taken as the lowest drug concentration at which a visible growth of the microorganisms was inhibited. Minimum biofilm eliminating concentrations (MBECs) were determined on 96-well flat-bottomed microtiter polystyrene plates with resazurin (7-hydroxy-3H-phenoxazin-3-one 10-oxide sodium salt) as a cell viability reagent. To do this, the plates were filled with 100 μL of the initial inoculums of bacteria (0.5 × 10^7 CFU/mL) in the Mueller–Hinton broth and incubated for 24 h at 37 °C. […] After 24 h of incubation, 20 μL of resazurin (4 mg/mL) was added to each well and the MBEC values were read. Minimum biofilm inhibitory concentrations (MBICs) were also determined on 96-well flat-bottomed microtiter polystyrene plates as described previously. To do this, 50 μL of the compounds in the concentration range, diluted MHB, were prepared. Subsequently, the 50 μL of the staphylococcal inoculums were added to reach the same density of bacteria as that in the MBEC assay. After 24 h of incubation at 37 °C, the wells were rinsed three times with PBS and the fresh medium (100 μL) with resazurin (0.6 mg/mL) was added. Then, after 1 h of incubation, MBICs were read. […] All experiments were conducted in triplicate.
(§2) Formation of the biofilm inside the PDMS flow chambers was performed using three peristaltic pumps working simultaneously (LP-pump, Kamush, Lipopharm, Poland) and sterile Tygon® 3350 silicone hoses (2.4 × 0.8 × 0.8 mm) with a length of 30 and 50 cm for inlet and outlet, respectively. Bacterial suspensions were prepared (0.5 × 10^7 CFU/mL) in sterile 50-mL test tubes, which were placed in a heating block at 37 °C. Before experiments, all channels were assessed for tightness and sterilized using a 70% 2-propanol solution (10 min, flow rate 1 mL/min) and rinsed with sterile PBS solution (10 min, flow 0.1 mL/min). The formation of biofilm inside the channels was divided into three stages: (1) adhesion—at this stage S. aureus suspensions were passed through the channels for 4 h at a flow rate of 0.1 mL/min; (2) rinsing—the previously used hoses were replaced with new sterile ones, and the channels were rinsed with sterile PBS solution for 10 min at a flow rate of 0.1 mL/min; (3) biofilm growth—after flushing the channels, the silicone hoses were placed in tubes with MHB medium, which was passed through the channels for 24 h at a flow rate of 0.1 mL/min. All experiments included growth and sterility controls.
(§3) This assay was conducted also on the S. aureus ATCC 25923 and S. aureus 33,591 (MRSA) strains.

[1] = system: S. aureus ATCC 33591 (MRSA); test: microbe, parasite or virus in culture
Source text: as §1, §2, §3

[2] = system: S. aureus clinical strain 004N (MRSA); set-up: method as in earlier work; settings: clinical isolate 004N (MRSA), nasal swab; cited from earlier work
[3] = system: S. aureus clinical strain 005S; set-up: method as in earlier work; settings: clinical isolate 005S, skin; cited from earlier work
[4] = system: S. aureus clinical strain 009S; set-up: method as in earlier work; settings: clinical isolate 009S, skin; cited from earlier work
[5] = system: S. aureus clinical strain 015N (MRSA); set-up: method as in earlier work; settings: clinical isolate 015N (MRSA), nasal swab; cited from earlier work
[6] = system: S. aureus clinical strain 030N; set-up: method as in earlier work; settings: clinical isolate 030N, nasal swab; cited from earlier work
[7] = system: S. aureus clinical strain 031S; set-up: method as in earlier work; settings: clinical isolate 031S, skin; cited from earlier work
[8] = system: S. aureus clinical strain 043SC (MRSA); set-up: method as in earlier work; settings: clinical isolate 043SC (MRSA), skin of patient with furuncle folliculitis; cited from earlier work
[9] = system: S. aureus clinical strain 051N (MRSA); set-up: method as in earlier work; settings: clinical isolate 051N (MRSA), nasal swab; cited from earlier work
[10] = system: S. aureus clinical strain 060S; set-up: method as in earlier work; settings: clinical isolate 060S, skin; cited from earlier work

SMILES: CN[C@H](CC(C)C)C(=O)N[C@H]1C(=O)N[C@@H](CC(N)=O)C(=O)N[C@H]2C(=O)N[C@H]3C(=O)N[C@H](C(=O)N[C@H](C(=O)O)c4cc(O)cc(O)c4-c4cc3ccc4O)[C@H](O)c3ccc(c(Cl)c3)Oc3cc2cc(c3O[C@@H]2O[C@H](CO)[C@@H](O)[C@H](O)[C@H]2O[C@H]2C[C@](C)(N)[C@H](O)[C@H](C)O2)Oc2ccc(cc2Cl)[C@H]1O [Vancomycin]
- MIC (S. aureus ATCC 25923; Staphylococcus aureus, ATCC25923, 0 h, S. aureus 25923, time 0 h (baseline, before peptide exposure)): 1 µg/mL (≈ 0.69 µM)
- MIC (S. aureus ATCC 25923; Staphylococcus aureus, ATCC25923, 24 h, S. aureus 25923 biofilm treated under flow with Omiganan (half MBEC) for 24 h): 1 µg/mL (≈ 0.69 µM)
- MIC (S. aureus ATCC 25923; Staphylococcus aureus, ATCC25923, 24 h, S. aureus 25923 biofilm treated under flow with Retro-Omiganan (half MBEC) for 24 h): 1 µg/mL (≈ 0.69 µM)
- MIC (S. aureus ATCC 25923; Staphylococcus aureus, ATCC25923, 48 h, S. aureus 25923 biofilm treated under flow with Omiganan (half MBEC) for 48 h): 1 µg/mL (≈ 0.69 µM)
- MIC (S. aureus ATCC 25923; Staphylococcus aureus, ATCC25923, 48 h, S. aureus 25923 biofilm treated under flow with Retro-Omiganan (half MBEC) for 48 h): 1 µg/mL (≈ 0.69 µM)
- MIC (S. aureus ATCC 25923; Staphylococcus aureus, ATCC25923, 72 h, S. aureus 25923 biofilm treated under flow with Omiganan (half MBEC) for 72 h): 1 µg/mL (≈ 0.69 µM)
- MIC (S. aureus ATCC 25923; Staphylococcus aureus, ATCC25923, 72 h, S. aureus 25923 biofilm treated under flow with Retro-Omiganan (half MBEC) for 72 h): 1 µg/mL (≈ 0.69 µM)
- MIC ([1]; Staphylococcus aureus, ATCC33591|MRSA, 0 h, S. aureus ATCC 33591 (MRSA), time 0 h (baseline, before peptide exposure)): 1 µg/mL (≈ 0.69 µM)
- MIC ([1]; Staphylococcus aureus, ATCC33591|MRSA, 24 h, S. aureus ATCC 33591 (MRSA) biofilm treated under flow with Omiganan (half MBEC) for 24 h): 1 µg/mL (≈ 0.69 µM)
- MIC ([1]; Staphylococcus aureus, ATCC33591|MRSA, 24 h, S. aureus ATCC 33591 (MRSA) biofilm treated under flow with Retro-Omiganan (half MBEC) for 24 h): 1 µg/mL (≈ 0.69 µM)
- MIC ([1]; Staphylococcus aureus, ATCC33591|MRSA, 48 h, S. aureus ATCC 33591 (MRSA) biofilm treated under flow with Omiganan (half MBEC) for 48 h): 1 µg/mL (≈ 0.69 µM)
- MIC ([1]; Staphylococcus aureus, ATCC33591|MRSA, 48 h, S. aureus ATCC 33591 (MRSA) biofilm treated under flow with Retro-Omiganan (half MBEC) for 48 h): 1 µg/mL (≈ 0.69 µM)
- MIC ([1]; Staphylococcus aureus, ATCC33591|MRSA, 72 h, S. aureus ATCC 33591 (MRSA) biofilm treated under flow with Omiganan (half MBEC) for 72 h): 1 µg/mL (≈ 0.69 µM)
- MIC ([1]; Staphylococcus aureus, ATCC33591|MRSA, 72 h, S. aureus ATCC 33591 (MRSA) biofilm treated under flow with Retro-Omiganan (half MBEC) for 72 h): 1 µg/mL (≈ 0.69 µM)
- Antimicrobial susceptibility (MIC) [2]: 0.5 µg/mL
- Antimicrobial susceptibility (MIC) [3]: 0.125 µg/mL
- Antimicrobial susceptibility (MIC) [4]: 0.25 µg/mL
- Antimicrobial susceptibility (MIC) [5]: 1 µg/mL
- Antimicrobial susceptibility (MIC) [6]: 2 µg/mL
- Antimicrobial susceptibility (MIC) [7]: 0.25 µg/mL
- Antimicrobial susceptibility (MIC) [8]: 0.5 µg/mL
- Antimicrobial susceptibility (MIC) [9]: 0.5 µg/mL
- Antimicrobial susceptibility (MIC) [10]: 0.5 µg/mL

SMILES: C/C(=C\C(=O)OCCCCCCCCC(=O)O)C[C@@H]1OC[C@H](C[C@@H]2O[C@H]2[C@@H](C)[C@H](C)O)[C@@H](O)[C@H]1O [Mupirocin]
- MIC (S. aureus ATCC 25923; S. aureus 25923 biofilm treated under flow with Retro-Omiganan (half MBEC) for 24 h): ≤ 0.25 µg/mL
- MIC (S. aureus ATCC 25923; S. aureus 25923 biofilm treated under flow with Retro-Omiganan (half MBEC) for 48 h): ≤ 0.25 µg/mL
- MIC (S. aureus ATCC 25923; S. aureus 25923 biofilm treated under flow with Retro-Omiganan (half MBEC) for 72 h): ≤ 0.25 µg/mL
- MIC (S. aureus ATCC 25923; Staphylococcus aureus, ATCC25923, 0 h): ≤ 0.25 µg/mL
- MIC (S. aureus ATCC 25923; Staphylococcus aureus, ATCC25923, 24 h): ≤ 0.25 µg/mL
- MIC (S. aureus ATCC 25923; Staphylococcus aureus, ATCC25923, 48 h): ≤ 0.25 µg/mL
- MIC (S. aureus ATCC 25923; Staphylococcus aureus, ATCC25923, 72 h): ≤ 0.25 µg/mL
- MIC ([1]; S. aureus ATCC 33591 (MRSA) biofilm treated under flow with Retro-Omiganan (half MBEC) for 24 h): ≤ 0.25 µg/mL
- MIC ([1]; S. aureus ATCC 33591 (MRSA) biofilm treated under flow with Retro-Omiganan (half MBEC) for 48 h): ≤ 0.25 µg/mL
- MIC ([1]; S. aureus ATCC 33591 (MRSA) biofilm treated under flow with Retro-Omiganan (half MBEC) for 72 h): ≤ 0.25 µg/mL
- MIC ([1]; Staphylococcus aureus, 0 h): ≤ 0.25 µg/mL
- MIC ([1]; Staphylococcus aureus, 24 h): ≤ 0.25 µg/mL
- MIC ([1]; Staphylococcus aureus, 48 h): ≤ 0.25 µg/mL
- MIC ([1]; Staphylococcus aureus, 72 h): ≤ 0.25 µg/mL
- Antimicrobial susceptibility (MIC) [2]: 0.125 µg/mL
- Antimicrobial susceptibility (MIC) [3]: > 512 µg/mL
- Antimicrobial susceptibility (MIC) [4]: > 512 µg/mL
- Antimicrobial susceptibility (MIC) [5]: 0.25 µg/mL
- Antimicrobial susceptibility (MIC) [6]: 0.25 µg/mL
- Antimicrobial susceptibility (MIC) [7]: 32 µg/mL
- Antimicrobial susceptibility (MIC) [8]: 0.5 µg/mL
- Antimicrobial susceptibility (MIC) [9]: 0.25 µg/mL
- Antimicrobial susceptibility (MIC) [10]: > 512 µg/mL
